The numbers were not newly measured in US20240164375A1, “LIQUID DISINFECTANT COMPOSITION AND USE THEREOF” (HYPRED, priority 2002, published 2024), which cites them from elsewhere.

For this data set the following is noted: 25° C.

In the case of `CCCCCCCC(=O)O` [octanoic acid], the pKa was 4.85.

As a reminder, the pKa is the negative logarithm of the acid dissociation constant.
